Drawing on ChEMBL document CHEMBL1156329, “Bioisostere of valtrate, anti-HIV principle by inhibition for nuclear export of Rev” (Bioorg Med Chem Lett, 2010), this text covers IC50 and inhibition for 2 compounds.

Activity calls are given as the source filed them. The rule behind the calls is not given here.

Test [1] is described as follows: Inhibition of hemagglutininin-tagged HIV1 Rev protein nuclear export in human HeLa cells assessed as protein localization after 12 hrs by indirect fluorescent antibody technique. Type of test: cell-based, Human immunodeficiency virus 1.
For the next test, the system named is HeLa. In words: Inhibition of hemagglutininin-tagged HIV1 Rev protein nuclear export in human HeLa cells assessed as protein localization at 10 uM after 12 hrs by indirect fluorescent antibody technique. The conditions noted are these: Human immunodeficiency virus 1. It counts as cell-based.

Turning to `CC(=O)OCC1=CO[C@@H](OC(=O)CC(C)C)[C@H]2C1=C[C@H](OC(=O)CC(C)C)[C@]21CO1` [VALTRATE], the IC50 in test [1] is 2.5 µM.

Take `CC(=O)OCC1=CO[C@@H](OC(=O)CC(C)C)[C@H]2[C@@H]1C[C@H](OC(=O)CC(C)C)[C@]21CO1`: the inhibition entry in the test with HeLa was “Active”. In test [1], the concentration for half-maximal inhibition (IC50) was found to be 4.4 µM.
